Laboratory results from ChEMBL document CHEMBL4483862, “Open-source discovery of chemical leads for next-generation chemoprotective antimalarials” (2018).

Tested on: Plasmodium berghei
Assay: Luciferase/luciferin-expressing antifolate-resistant parasites were used to infect a culture of HepG2 cells that were pre-incubated with compounds. Infected hepatocytes emit light due to the luciferase reaction. Assay results are presented as the percent inhibition of light emission compared to control. […]
Format: functional
Conditions: sporozoite; for IC90: read-out: LUCIFERASE INFECTION ASSAY - IC90

## O=c1c(Br)c(Br)cnn1-c1ccccc1
HEPG2TOX_HILL_SLOPE 14.1, HEPG2TOX_R_SQUARED 0.656, PBLUC_HILL_SLOPE 2.79, PBLUC_R_SQUARED 0.266, read-out: LUCIFERASE INFECTION ASSAY - IC50
  IC50: 6.1 µM
  IC90: > 10 µM

## O=C(Nc1ccc(Cl)cc1)Nc1csc([N+](=O)[O-])c1
HEPG2TOX_HILL_SLOPE 14.4, HEPG2TOX_R_SQUARED 0.942, PBLUC_HILL_SLOPE 1.2, PBLUC_R_SQUARED 0.682, read-out: LUCIFERASE INFECTION ASSAY - IC50
  IC50: 1.62 µM
  IC90: 10 µM

## O=C(Nc1ccc(F)cc1F)c1cc(Cl)ccc1O
HEPG2TOX_HILL_SLOPE 14.4, HEPG2TOX_R_SQUARED 0.715, PBLUC_HILL_SLOPE 17.6, PBLUC_R_SQUARED 0.0303, read-out: LUCIFERASE INFECTION ASSAY - IC50
  IC50: 3.86 µM
  IC90: 4.37 µM

## COc1ccc(Oc2ccc(/C=C/C(=O)c3ccc(N4CCN(C)CC4)cc3)cc2[N+](=O)[O-])cc1
HEPG2TOX_HILL_SLOPE 14.7, HEPG2TOX_R_SQUARED 0.729, PBLUC_HILL_SLOPE 20.7, PBLUC_R_SQUARED 0.331, read-out: LUCIFERASE INFECTION ASSAY - IC50
  IC50: 3.9 µM
  IC90: 4.34 µM

## Cc1nc(-c2ccc(CCNC(=O)c3ccc(S(C)(=O)=O)c([N+](=O)[O-])c3)cc2)cs1
HEPG2TOX_HILL_SLOPE 14.7, HEPG2TOX_R_SQUARED 0.837, PBLUC_HILL_SLOPE 381, PBLUC_R_SQUARED 0.298, read-out: LUCIFERASE INFECTION ASSAY - IC50
  IC50: 5.43 µM
  IC90: 5.46 µM

## CCC(C)(C)NS(=O)(=O)c1ccc(-n2ncc(Cl)c(Cl)c2=O)cc1
HEPG2TOX_HILL_SLOPE 13.4, HEPG2TOX_R_SQUARED 0.912, PBLUC_HILL_SLOPE 13.3, PBLUC_R_SQUARED 0.601, read-out: LUCIFERASE INFECTION ASSAY - IC50
  IC50: 1.23 µM
  IC90: 1.45 µM

## O=C(Nc1ncc(Cc2ccc(F)c(F)c2)s1)c1ccc2nc[nH]c2c1
HEPG2TOX_HILL_SLOPE 13.7, HEPG2TOX_R_SQUARED 0.959, PBLUC_HILL_SLOPE 2.28, PBLUC_R_SQUARED 0.72, read-out: LUCIFERASE INFECTION ASSAY - IC50
  IC50: 4.35 µM
  IC90: > 10 µM

## O=C(/C=C/c1ccc(F)cc1)Nc1cc([N+](=O)[O-])c(F)cc1F
HEPG2TOX_HILL_SLOPE 14.4, HEPG2TOX_R_SQUARED 0.364, PBLUC_HILL_SLOPE 4.24, PBLUC_R_SQUARED 0.457, read-out: LUCIFERASE INFECTION ASSAY - IC50
  IC50: 8.62 µM
  IC90: > 10 µM

## O=C1Cn2c(c(-c3nc4ccccc4[nH]3)c(=O)c3ccccc32)N1
HEPG2TOX_HILL_SLOPE 13.7, HEPG2TOX_R_SQUARED 0.894, PBLUC_HILL_SLOPE 11.3, PBLUC_R_SQUARED 0.46, read-out: LUCIFERASE INFECTION ASSAY - IC50
  IC50: 7.72 µM
  IC90: 9.39 µM

## O=c1c(C(F)(F)F)cccn1Cc1csc(COc2ccc(Cl)cc2)n1
HEPG2TOX_HILL_SLOPE 13.6, HEPG2TOX_R_SQUARED 0.877, PBLUC_HILL_SLOPE 2.65, PBLUC_R_SQUARED 0.537, read-out: LUCIFERASE INFECTION ASSAY - IC50
  IC50: 7.31 µM
  IC90: > 10 µM

## CCNC(=O)NC(=O)C(C)OC(=O)c1c(C)c(CC)nc2ccccc12 (configuration not stated)
HEPG2TOX_HILL_SLOPE 14.2, HEPG2TOX_R_SQUARED 0.666, PBLUC_HILL_SLOPE 0.849, PBLUC_R_SQUARED 0.474, read-out: LUCIFERASE INFECTION ASSAY - IC50
  IC50: 4.39 µM
  IC90: > 10 µM

## O=C(NCCO)c1cccc(-c2ccc3ncc(-c4cccc(O)c4)n3n2)c1
HEPG2TOX_HILL_SLOPE 14.1, HEPG2TOX_R_SQUARED 0.658, PBLUC_HILL_SLOPE 25.2, PBLUC_R_SQUARED 0.24, read-out: LUCIFERASE INFECTION ASSAY - IC50
  IC50: 8.83 µM
  IC90: 9.64 µM

## CC(C)(C)NC(=O)c1csc(C(O)c2cccc(C(F)(F)F)c2)n1 (configuration not stated)
HEPG2TOX_HILL_SLOPE 14.6, HEPG2TOX_R_SQUARED 0.662, PBLUC_HILL_SLOPE 2.89, PBLUC_R_SQUARED 0.602, read-out: LUCIFERASE INFECTION ASSAY - IC50
  IC50: 4.91 µM
  IC90: > 10 µM

## O=[N+]([O-])c1ccc(NC2C=CS(=O)(=O)C2)c(Cl)c1 (configuration not stated)
HEPG2TOX_HILL_SLOPE 13.7, HEPG2TOX_R_SQUARED 0.786, read-out: LUCIFERASE INFECTION ASSAY - IC50
  IC50: > 10 µM
  IC90: > 10 µM

## O=C(Nc1nc(-c2ccc3c(c2)CCC3)cs1)c1ccc(CSc2nnc[nH]2)cc1
HEPG2TOX_HILL_SLOPE 14.2, HEPG2TOX_R_SQUARED 0.936, PBLUC_HILL_SLOPE 3.67, PBLUC_R_SQUARED 0.0328, read-out: LUCIFERASE INFECTION ASSAY - IC50
  IC50: 6.58 µM
  IC90: > 10 µM

## Cc1cccc(C)c1-n1nnnc1Sc1nc(CN2CCOCC2)nc2sc(C)c(C)c12
HEPG2TOX_HILL_SLOPE 14.5, 28.4, HEPG2TOX_R_SQUARED 0.890, 0.649, PBLUC_HILL_SLOPE 85.3, 7.09, PBLUC_R_SQUARED 0.147, 0.386, read-out: LUCIFERASE INFECTION ASSAY - IC50
  IC50: 8.67 µM
  IC90: > 10 µM

## CCN(CCO)c1ccc(Nc2cc(C(=O)Nc3ccccc3)ncn2)cc1
HEPG2TOX_HILL_SLOPE 13.5, HEPG2TOX_R_SQUARED 0.28, PBLUC_HILL_SLOPE 1.45, PBLUC_R_SQUARED 0.807, read-out: LUCIFERASE INFECTION ASSAY - IC50
  IC50: 1.74 µM
  IC90: 7.92 µM

## CCCNC(=O)c1c(NC(=O)c2ccc(CC)cc2)nc2ccc(C)cn12
HEPG2TOX_HILL_SLOPE 14.6, HEPG2TOX_R_SQUARED 0.266, PBLUC_HILL_SLOPE 22.2, PBLUC_R_SQUARED 0.534, read-out: LUCIFERASE INFECTION ASSAY - IC50
  IC50: 2.92 µM
  IC90: 3.22 µM

## O=C(NNC(=O)c1cnc2ccccn2c1=O)c1cc(Cl)ccc1O
HEPG2TOX_HILL_SLOPE 14.4, HEPG2TOX_R_SQUARED 0.595, PBLUC_HILL_SLOPE 11.5, PBLUC_R_SQUARED 0.377, read-out: LUCIFERASE INFECTION ASSAY - IC50
  IC50: 3.51 µM
  IC90: 4.25 µM

## CCOC(=O)c1c(NC(=O)Cn2ncc(Cl)c(Cl)c2=O)sc(C(=O)NC)c1C
HEPG2TOX_HILL_SLOPE 14.3, HEPG2TOX_R_SQUARED 0.883, PBLUC_HILL_SLOPE 2.04, PBLUC_R_SQUARED 0.801, read-out: LUCIFERASE INFECTION ASSAY - IC50
  IC50: 2.11 µM
  IC90: 6.18 µM

## COc1ccc(-c2noc(CN3CCN(C(=O)c4nn(-c5cccc(Cl)c5)nc4C)CC3)n2)cc1
HEPG2TOX_HILL_SLOPE 14.4, HEPG2TOX_R_SQUARED 0.481, PBLUC_HILL_SLOPE 15.9, PBLUC_R_SQUARED 0.0941, read-out: LUCIFERASE INFECTION ASSAY - IC50
  IC50: 9.11 µM
  IC90: > 10 µM

## COc1ccc(/C=C(/C(=O)Nc2ccc(C)c(C)c2)c2nc3ccccc3s2)cc1
HEPG2TOX_HILL_SLOPE 13.8, HEPG2TOX_R_SQUARED 0.904, PBLUC_HILL_SLOPE 19.4, PBLUC_R_SQUARED 0.196, read-out: LUCIFERASE INFECTION ASSAY - IC50
  IC50: 3.27 µM
  IC90: 3.66 µM

## CCc1ccc2nc(NC(=O)c3cnccn3)sc2c1
HEPG2TOX_HILL_SLOPE 14.5, HEPG2TOX_R_SQUARED 0.913, PBLUC_HILL_SLOPE 21.7, PBLUC_R_SQUARED 0.176, read-out: LUCIFERASE INFECTION ASSAY - IC50
  IC50: 8.73 µM
  IC90: 9.66 µM

## O=C(CN1CCN(c2ccc(C(F)(F)F)cn2)CC1)N1CCC(c2nc3ccccc3s2)CC1
HEPG2TOX_HILL_SLOPE 13.7, HEPG2TOX_R_SQUARED 0.915, PBLUC_HILL_SLOPE 1.27, PBLUC_R_SQUARED 0.698, read-out: LUCIFERASE INFECTION ASSAY - IC50
  IC50: 3.43 µM
  IC90: > 10 µM

## Fc1cccc(-c2cc3c(Nc4ccc5c(c4)OCCO5)nccc3[nH]2)c1
HEPG2TOX_HILL_SLOPE 14.3, HEPG2TOX_R_SQUARED 0.604, PBLUC_HILL_SLOPE 1.45, PBLUC_R_SQUARED 0.727, read-out: LUCIFERASE INFECTION ASSAY - IC50
  IC50: 1.59 µM
  IC90: 7.25 µM

## CN(C)C(=O)c1ccc(-c2ccnc3n[nH]c(-c4ccc(N(C)C)cc4)c23)cc1
HEPG2TOX_HILL_SLOPE 14.4, HEPG2TOX_R_SQUARED 0.857, PBLUC_HILL_SLOPE 6.94, PBLUC_R_SQUARED 0.445, read-out: LUCIFERASE INFECTION ASSAY - IC50
  IC50: 3.69 µM
  IC90: 5.06 µM

## Fc1cccc(-c2cc3c(Nc4ccccn4)nccc3[nH]2)c1
HEPG2TOX_HILL_SLOPE 13.8, HEPG2TOX_R_SQUARED 0.872, PBLUC_HILL_SLOPE 30.4, PBLUC_R_SQUARED 0.0497, read-out: LUCIFERASE INFECTION ASSAY - IC50
  IC50: 8.5 µM
  IC90: 9.13 µM

## COc1cccc(CNC(=O)Nc2ccc3nc(Cc4ccccc4)nn3c2)c1
HEPG2TOX_HILL_SLOPE 13.6, HEPG2TOX_R_SQUARED 0.936, PBLUC_HILL_SLOPE 1.17, PBLUC_R_SQUARED 0.525, read-out: LUCIFERASE INFECTION ASSAY - IC50
  IC50: 2.14 µM
  IC90: > 10 µM

## CCN(c1ccc(NC(=O)c2ccc3c(c2)NC(=O)CS3)cc1)C(C)C
HEPG2TOX_HILL_SLOPE 14.6, HEPG2TOX_R_SQUARED 0.71, PBLUC_HILL_SLOPE 18.6, PBLUC_R_SQUARED 0.967, read-out: LUCIFERASE INFECTION ASSAY - IC50
  IC50: 3.27 µM
  IC90: 3.68 µM

## Oc1ccc(/C=C/c2ccc3cccc(O)c3n2)cc1
HEPG2TOX_HILL_SLOPE 13.8, HEPG2TOX_R_SQUARED 0.969, PBLUC_HILL_SLOPE 21.8, PBLUC_R_SQUARED 0.339, read-out: LUCIFERASE INFECTION ASSAY - IC50
  IC50: 4.58 µM
  IC90: 5.07 µM

## CN1CCN(c2ccc(CNc3ccc4ncc(-c5ccc(OC(F)(F)F)cc5)n4n3)cc2)CC1
HEPG2TOX_HILL_SLOPE 14.3, HEPG2TOX_R_SQUARED 0.469, PBLUC_HILL_SLOPE 4.14, PBLUC_R_SQUARED 0.775, read-out: LUCIFERASE INFECTION ASSAY - IC50
  IC50: 3.6 µM
  IC90: 6.12 µM
